Results taken from EP4813463A2, “TYK2 INHIBITORS AND COMPOSITIONS AND METHODS THEREOF” (Lynk Pharmaceuticals Co. Ltd., priority 2023, dated 2024).
Where two headings read alike, the source gives them in different places.

How the values were obtained:
TYK2-JH2 domain = target: T1, TYK2-JH2 domain (Homo sapiens, UniProt P29597); experiment: Binding activity test for JH2 domain of TYK2 (Tb-antibody/tracer FRET); settings: for IC50: JH2 domain enzyme, 60 min at 25°C, then 4°C overnight, read-out: TYK2 JH2 Binding IC50; for JAK1/TYK2 selectivity: ratio of JAK1 JH2 to TYK2 JH2 binding IC50
T1 construct: JAK1-JH2 domain or TYK2-JH2 domain enzyme in assay buffer
T1 sequence (P29597 589-875 limits assumed): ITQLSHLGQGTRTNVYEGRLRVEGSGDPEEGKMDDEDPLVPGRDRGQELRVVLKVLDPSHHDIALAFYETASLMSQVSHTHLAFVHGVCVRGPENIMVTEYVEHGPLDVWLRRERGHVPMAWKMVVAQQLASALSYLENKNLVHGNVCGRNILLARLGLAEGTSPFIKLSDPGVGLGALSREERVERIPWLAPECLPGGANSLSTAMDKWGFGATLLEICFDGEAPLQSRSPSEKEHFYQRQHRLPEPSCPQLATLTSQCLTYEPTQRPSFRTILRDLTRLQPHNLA
Method in brief: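 Competitive TR-FRET binding: compounds dispensed as an 11-point 3-fold dilution series, then Tb-labelled antibody and tracer added to the JH2 protein system. Incubated at 25°C, then overnight at 4°C; FRET signal read on Envision and IC50 (nM) derived.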

JAK1-JH2 domain = target: T2, JAK1-JH2 domain (Homo sapiens, UniProt P23458); experiment: Binding activity test for JH2 domain of JAK1 (Tb-antibody/tracer FRET); settings: JH2 domain enzyme; 60 min at 25°C, then 4°C overnight; read-out: JAK1 JH2 Binding IC50
T2 construct: JAK1-JH2 domain or TYK2-JH2 domain enzyme in assay buffer
T2 sequence (P23458 583-855 limits assumed): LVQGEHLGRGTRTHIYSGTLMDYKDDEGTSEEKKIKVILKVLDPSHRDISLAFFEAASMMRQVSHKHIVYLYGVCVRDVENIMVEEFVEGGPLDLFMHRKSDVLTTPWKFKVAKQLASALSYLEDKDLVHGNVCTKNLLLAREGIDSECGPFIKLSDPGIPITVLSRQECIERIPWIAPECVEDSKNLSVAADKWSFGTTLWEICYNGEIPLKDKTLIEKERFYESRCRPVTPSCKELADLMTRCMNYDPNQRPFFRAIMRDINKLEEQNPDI
Method: Binding Activity test for JH2 domain of JAK1 and TYK2 […] Add 8μL/well in echo source plate, echo will add 75nL/well with 3-fold serial dilution for 11 points in assay plate. 75nL DMSO for high control and low control. […] For low control, add 5μL/well assay buffer. And then spin down at 1000rpm and centrifuge for 30 seconds. After enzyme system prepared, add 5μL of Tb-antibody solution into each well of assay plate. Spin down at 1000 rpm and centrifuge for 30sec. After Tb-antibody added, also add 5μL of tracer into the assay plate. Spin down at 1000rpm and centrifuge for 30sec. Incubate for […] at 25°C firstly and then continue to incubate the plate at 4°C overnight. Read by envision in FRET mode. The Luminescence value was recorded by a multi-label reader Envision (PerkinElmer). […] Table 2. IC50 on JH2 domain activity (nM)

[1] = tested on: Ba/F3-FL-TYK2-P760L cells; experiment: Anti-proliferative assay in engineered Ba/F3 cells (Cell-Titer Glo, 72 h); assay type: cell-based; settings: 72 h compound treatment, concentration that causes 50% growth inhibition, read-out: Baf3-FL-T2P760L
Method in brief: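 Ba/F3 cells carrying Tel-dimerization/JAK kinase fusion, IL-3-independent, in RPMI-1640 + 10% FBS; 9-point 3-fold dilutions from 20 µM (0.1% DMSO) added after 24 h, 72 h at 37 °C. Viability by Cell-Titer Glo ATP luminescence; % inhibition versus DMSO cells, blank-corrected, giving IC50.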

| Compound | IC50 (TYK2-JH2 domain) [nM] | JAK1/TYK2 selectivity (TYK2-JH2 domain) | IC50 (JAK1-JH2 domain) [nM] | IC50 ([1]; Mus musculus, BaF3, 72 h) [nM] | IC50 [1] [nM] |
| --- | --- | --- | --- | --- | --- |
| [2H]C([2H])([2H])NC(=O)c1nnc(NC(=O)C2CC23CC3)cc1Nc1cnn2ccc([C@H](O)C(F)(F)F)c(OC)c12 (single isomer, unassigned) [Example 82A, 4-((4-Methoxy-5-((S)-2,2,2-trifluoro-1-hydroxyethyl)pyrazolo[1,5-a]pyridin-3-yl)amino)-N-(methyl-d3)-6-((R*)-spiro[2.2]pentane-1-carboxamido)pyridazine-3-carboxamide] | 0.21 | 38.29 | 7.96 | 35 |  |
| CNC(=O)c1cnc(NC(=O)C2CC2)cc1Nc1nn(C)c2ccc([C@H](OC)C(F)(F)F)c(OC)c12 [Example 190, (S)-6-(Cyclopropanecarboxamido)-4-((4-methoxy-1-methyl-5-(2,2,2-trifluoro-1-methoxyethyl)-1H-indazol-3-yl)amino)-N-methylnicotinamide] | 0.076 | 25.71 | 1.95 | 0.196 |  |
| COc1c([C@H](OC)C(F)(F)F)ccn2ncc(Nc3cc(NC(=O)C4CC4)ncc3C(O)CC#N)c12 (stereo partly drawn) [Example 92, N-(5-(2-cyano-1-hydroxyethyl)-4-((4-methoxy-5-((S)-2,2,2-trifluoro-1-methoxyethyl)pyrazolo[1,5-a]pyridin-3-yl)amino)pyridin-2-yl)cyclopropanecarboxamide] | 26.5 | 3.00 | 79.6 | 878 |  |
| COC1CN(c2ccc3nc(Nc4cc(NC(=O)C5CC5)ncc4C(C)(F)F)nn3c2)C1 [Example 176, N-(5-(1,1-difluoroethyl)-4-((6-(3-methoxyazetidin-1-yl)-[1,2,4]triazolo[1,5-a]pyridin-2-yl)amino)pyridin-2-yl)cyclopropanecarboxamide] | 0.768 | 22.21 | 17.1 | 13.3 |  |
| COCCn1ccc(Nc2cc(Nc3nn(C)c4ccc([C@H](OC)C(F)(F)F)c(OC)c34)c(C(=O)OC)cn2)n1 [Example 181, Methyl (S)-4-((4-methoxy-1-methyl-5-(2,2,2-trifluoro-1-methoxyethyl)-1H-indazol-3-yl)amino)-6-((1-(2-methoxyethyl)-1H-pyrazol-3-yl)amino)nicotinate] | 0.309 | >966 | > 298 | 35.2 |  |
| COC(=O)c1cnc(NC(=O)C2CC2)cc1Nc1cnn2ccc(C(C)C(F)(F)F)c(OC)c12 (stereo not shown) [Example 93, Methyl 6-(cyclopropanecarbonylamino)-4-[[4-methoxy-5-(2,2,2-trifluoro-1-methylethyl)pyrazolo[1,5-a]pyridin-3-yl]amino]pyridine-3-carboxylate] | 1.24 | 51.39 | 63.7 | 577 |  |
| COC(=O)c1cnc(NC(=O)C2CC2)cc1Nc1cccc(-c2ccn(C)n2)c1OC [Example 60, Methyl 6-(cyclopropanecarboxamido)-4-((2-methoxy-3-(1-methyl-1H-pyrazol-3-yl)phenyl)amino)nicotinate] | 0.546 | 32.87 | 17.9 | 94.4 |  |
| CCOC(=O)c1cnc(NC(=O)C2CC2)cc1Nc1cnn2ccc([C@H](O)C(F)(F)F)c(OC)c12 [Example 83, (S)-ethyl 6-(cyclopropanecarboxamido)-4-((4-methoxy-5-(2,2,2-trifluoro-1-hydroxyethyl)pyrazolo[1,5-a]pyridin-3-yl)amino)nicotinate] | 0.76 | >393.28 | > 298 | 173 |  |
| [2H]C([2H])([2H])NC(=O)c1cnc(NC(=O)[C@@H]2C[C@@H]2F)cc1Nc1cnn2ccc(C(O)C(F)(F)F)c(OC)c12 (single isomer, unassigned) [Example 15B, 6-((1S,2S)-2-fluorocyclopropane-1-carboxamido)-4-((4-methoxy-5-((R*)-2,2,2-trifluoro-1-hydroxyethyl)pyrazolo[1,5-a]pyridin-3-yl)amino)-N-(methyl-d3)nicotinamide] | 0.375 | 53.3 | 20 |  | 870 |
| [2H]C([2H])([2H])NC(=O)c1cnc(NC(=O)C2CC2)cc1Nc1cnn2cccc(OC)c12 [Example 44, 6-(Cyclopropanecarboxamido)-4-((4-methoxypyrazolo[1,5-a]pyridin-3-yl)amino)-N-(methyl-d3)nicotinamide] | 2.8 | 21.5 | 60.2 | 356 |  |
| CNC(=O)c1nnc(NC(=O)C2CC2)cc1Nc1cn(C)c2cccc(OC)c12 [Example 1, 6-(Cyclopropanecarboxamido)-4-((4-methoxy-1-methyl-1H-indol-3-yl)amino)-N-methylpyridazine-3-carboxamide] | 2.33 | 8.4 | 19.5 | 1170 |  |
| COC(=O)c1cnc(NC(=O)C2CC2)cc1Nc1nn(C)c2ccc([C@@H](OC)C(F)(F)F)c(OC)c12 [Example 45A, Methyl (R)-6-(cyclopropanecarboxamido)-4-((4-methoxy-1-methyl-5-(2,2,2-trifluoro-1-methoxyethyl)-1H-indazol-3-yl)amino)nicotinate] | 0.826 | >361.38 | > 298 | 110 |  |
| COc1c(Nc2cc(NC(=O)C3CC3)ncc2C(C)(F)F)cccc1-c1cnn(C)n1 [Example 168, N-(5-(1,1-difluoroethyl)-4-((2-methoxy-3-(2-methyl-2H-1,2,3-triazol-4-yl)phenyl)amino)pyridin-2-yl)cyclopropanecarboxamide] | 0.27 | 3.81 | 1.03 | 19.1 |  |
| CCOC(c1ccc2c(c(Nc3cc(NC(=O)C4CC4)ncc3C(=O)OC)nn2C)c1OC)C(F)(F)F (single isomer, unassigned) [Example 106B, Methyl (S*)-6-(cyclopropanecarboxamido)-4-((5-(1-ethoxy-2,2,2-trifluoroethyl)-4-methoxy-1-methyl-1H-indazol-3-yl)amino)nicotinate] | 0.21 | 75.19 | 15.8 | 5.49 |  |
| COc1c(-c2cnn(C)n2)ccnc1Nc1cc(NC(=O)C2CC2)ncc1C(C)(F)F [Example 177, N-(5-(1,1-Difluoroethyl)-4-((3-methoxy-4-(2-methyl-2H-1,2,3-triazol-4-yl)pyridin-2-yl)amino)pyridin-2-yl)cyclopropanecarboxamide] | 0.749 | 8.50 | 6.37 | 15.2 |  |
| [2H]C([2H])([2H])C([2H])([2H])C(=O)c1cnc(NC(=O)C2CC2)cc1Nc1nn(C)c2ccc([C@H](O)C(F)(F)F)c(OC)c12 [Example 154, (S)-N-(4-((4-methoxy-1-methyl-5-(2,2,2-trifluoro-1-hydroxyethyl)-1H-indazol-3-yl)amino)-5-(propanoyl-d5)pyridin-2-yl)cyclopropanecarboxamide] | 0.066 | 104.27 | 6.88 | 0.455 |  |
| COC(=O)c1cnc(Nc2ccc(Cl)cn2)cc1Nc1nn(C)c2ccc([C@H](OC)C(F)(F)F)c(OC)c12 [Example 175, Methyl (S)-6-((5-chloropyridin-2-yl)amino)-4-((4-methoxy-1-methyl-5-(2,2,2-trifluoro-1-methoxyethyl)-1H-indazol-3-yl)amino)nicotinate] | 0.384 | >777.34 | > 298 | 18.1 |  |
| [2H]C([2H])([2H])n1nc(Nc2cc(NC(=O)C3CC3)ncc2C(=O)OC)c2c(OC)c([C@@H](OC)C(F)(F)F)ccc21 [Example 52B, Methyl (R)-6-(cyclopropanecarboxamido)-4-((4-methoxy-1-(methyl-d3)-5-(2,2,2-trifluoro-1-methoxyethyl)-1H-indazol-3-yl)amino)nicotinate] | 0.616 | >484.60 | > 298 | 119 |  |
| COc1c([C@H](OC)C(F)(F)F)ccn2ncc(Nc3cc(NC(=O)C4CC4)ncc3OCC#N)c12 [Example 95, (S)-N-(5-(cyanomethoxy)-4-((4-methoxy-5-(2,2,2-trifluoro-1-methoxyethyl)pyrazolo[1,5-a]pyridin-3-yl)amino)pyridin-2-yl)cyclopropanecarboxamide] | 68.3 | >4.37 | > 298 | > 5000 |  |
